Assay results published in patent US20220362386A1, “LIQUID COMPOSITIONS COMPRISING A LEVODOPA AMINO ACID CONJUGATE AND USES THEREOF” (NeuroDerm, Ltd., priority 2019, published 2022).
Where a name gives a salt, the structure may show the parent alone. Read-outs that look alike come from different tables or passages of the source. One block for each molecule: values may come before it. Non-standard residues stand in square brackets, D forms with d. Residues, ends and D or L forms follow the SMILES beside them. Dopa = N[C@@H](Cc1ccc(O)c(O)c1)C(=O)O

Assays:
[1] = Protein binding, solid phase extraction (SPE) method; format: in vitro ADME, human; details: human, human plasma, 1.0E−05M, SPE sample preparation
Experimental: (§1) A solid phase extraction (SPE) method was used to prepare samples for several compounds in the plasma protein binding assay. The following SPE protocols were followed:
(§2) Sorbent: Waters Oasis MCX 96—well MicroElution Plate—Cat #186001830BA Sample: 200 μL of plasma spiked at 10 μM with test compound. Sample was diluted 1:1 with 4% phosphoric acid in water and mixed for 15 minutes 1) Place Oasis plate on vacuum manifold and set vacuum to 5″ Hg; 2) Condition with 200 μL methanol; 3) Equilibrate with 200 μL water; 4) Load dilute plasma sample; 5) Wash with 200 μL 2% formic acid in water; 6) Wash with 400 μL methanol; and 7) Elute with 100 μL 5% NH4OH in methanol.
as §2, with “MAX 96-well” for “MCX 96—well”, “plate—Cat #186001829” for “Plate—Cat #186001830BA”, “5% NH4OH” for “2% formic acid”, “2% formic acid” for “5% NH4OH”

human plasma = experiment: as above; format: in vitro ADME; details: 1.0E−05M; SPE sample preparation
Experimental: as §1, §2
as §2, with “MAX 96-well” for “MCX 96—well”, “plate—Cat #186001829” for “Plate—Cat #186001830BA”, “5% NH4OH” for “2% formic acid”, “2% formic acid” for “5% NH4OH”

[2] = Human liver S9 stability test; format: in vitro ADME; details: slope of the percentage decrease of remaining compound; substrate 10 μM; S9 protein 0.2 mg/mL; 0-60 minutes
Experimental: The stability of several LDAA compounds, in their TFA salt form, in human liver S9 was tested using commercially available liver S9. The substrate concentration was 10 μM, the S9 protein concentration was 0.2 mg/mL, and the incubation time 0, 5, 15, 30 and 60 minutes.
The results are described in Table 18, wherein the results describe the Ke, i.e., the slope of the percentage decrease of the remaining amount of the compound, measured at each of the above time points, such that the higher the Ke the faster the metabolism.

[3] = Human blood stability test; format: in vitro ADME; details: slope of the percentage decrease of remaining compound; substrate 10 μM; 0-60 minutes
Experimental: The stability of several LDAA compounds in human blood was tested. The substrate concentration was 10 μM and the incubation time 0, 5, 15, 30 and 60 minutes.
The results are described in Table 19, wherein the results describe the Ke, i.e., the slope of the percentage decrease of the remaining amount of the compound, measured at each of the above time points, such that the higher the Ke the faster the metabolism.

[4] = 0 weeks
Experimental: (§5) It is noted that the recovery % compared the amount of any given material as measured at t=28 h (or any other presented value) compared to the amount of that material, at measured at t=0.

[5] = Analytical stability of LD-Tyr/CD formulations by HPLC (Tables 42-45c); details: for Analytical stability result (HPLC), t = 1 week / Analytical stability result (HPLC), t = 2 weeks: in mg/mL (unit assumed)
Experimental: as §5

physchem = format: physicochemical
Experimental: The volume of the solution in the bottle was adjusted to 5 ml, either by adding solvent, or be removing any residual solution, after which the bottle was tightly closed and left at 25° C. for stability observation. It is noted that throughout Example 4, the concentrations in the tables below were calculated taking into account the amount of solvent added or the solution removed, in which event, the calculations were performed regarding the 5 ml+(amount removed) as the volume of the solution. It is further noted that throughout this document, unless mentioned otherwise, the stability was measured using the manual visual inspection Bosch apparatus MIH DX, at a magnification of ×1.75.
(§3) The LD-Tyr free base, prepared according to Example 2, was added to a solvent, as detailed in Table 7 below, and neutralized by addition of NaOH. When maximum solubility was observed, the solution was filtered and then transferred to a bottle that was previously weighed and flushed with nitrogen. The volume of the solution in the bottle was adjusted to 5 ml, after which the bottle was tightly closed and left at 25° C. for stability observation.
(§4) When maximum solubility was observed, the solution was filtered and then transferred to a bottle that was previously weighed and flushed with nitrogen. The volume of the solution in the bottle was adjusted to 5 ml, after which the bottle was tightly closed and left at 25° C. for stability observation.
as §4, with “stored” for “left”
as §4, with “stored” for “left”
as §3, with “LD-Lys TFA salt,” for “The LD-Tyr free base,”, “1, and which comprises two equivalents of TFA,” for “2,”, “11” for “7”, “stored” for “left”
as §4, with “As detailed above regarding other solutions, with the LD-Tyr free base when” for “When”
as §3, with “LD-Lys HCl salt,” for “The LD-Tyr free base,”, “3,” for “2,”, “13” for “7”, “by the” for “by”

[6] = Stability observation of the solubility solutions at 25° C. (visual inspection for precipitants); format: physicochemical
Experimental: The volume of the solution in the bottle was adjusted to 5 ml, either by adding solvent, or be removing any residual solution, after which the bottle was tightly closed and left at 25° C. for stability observation. […] It is further noted that throughout this document, unless mentioned otherwise, the stability was measured using the manual visual inspection Bosch apparatus MIH DX, at a magnification of ×1.75.

[7] = NB 144-4 formulation, Storage temp. 2-8° C.
[8] = NB 144-4 formulation, Storage temp. 25° C.
[9] = NB 144-4 formulation, Storage temp. 40° C.
[10] = NB 144-32 (F1), 37% LD-Tyr/0.5% CD
[11] = NB 144-34 (F2), 44% LD-Tyr/0.5% CD
[12] = NB 144-39 (F3), 30% LD-Tyr/0.5% CD
[13] = 0.75% CD solution, pH 8.5, 240 mg/ml salt

recovery at 10 μM ([1]; read-out: % Recovery 1st): 110% | recovery at 10 μM ([1]; read-out: % Recovery 2nd): 115% | recovery at 10 μM ([1]; read-out: % Recovery Mean): 112% | % Protein Bound 1st (human plasma): 36.6% | % Protein Bound 2nd (human plasma): 49.4% | % Protein Bound Mean (human plasma): 43%
SMILES: N[C@@H](Cc1ccc(O)c(O)c1)C(=O)N[C@@H](CCC(=O)O)C(=O)O [LD-Glu TFA salt, Levodopa Glutamic Acid TFA Salt] (H-[Dopa]-Glu-OH)

Ke [2]: −0.0008 | Ke [3]: 0.0149
SMILES: NC(=O)[C@@H](N)Cc1ccc(O)c(O)c1 [LDA (levodopa amide), levodopa amide, reference compound]

Analytical stability result (HPLC), t = 0 [4]: 7.37 | Analytical stability result (HPLC), t = 0 ([5]; NB 144-4 formulation (30% LD-Tyr/0.75% CD), Storage temp. 2-8° C.): 7.37 | % retention, t = 1 week [5, 7]: 99.9% | Analytical stability result (HPLC), t = 1 week [5, 7]: 7.36 | % retention, t = 2 weeks [5, 7]: 99.1% | Analytical stability result (HPLC), t = 2 weeks [5, 7]: 7.30 | % retention, t = 1 week [5, 8]: 99.3% | Analytical stability result (HPLC), t = 1 week [5, 8]: 7.32 | % retention, t = 2 weeks [5, 8]: 100.5% | Analytical stability result (HPLC), t = 2 weeks [5, 8]: 7.41 | Analytical stability result (HPLC), t = 0 [5, 9]: 7.37 | % retention, t = 1 week [5, 9]: 98.5% | Analytical stability result (HPLC), t = 1 week [5, 9]: 7.26 | Concentration (HPLC), t = 0 [5, 10]: 4.78 | Concentration (HPLC), t = 28 h at 32° C. [5, 10]: 4.77 | Concentration (HPLC), t = 0 [5, 11]: 4.84 | Concentration (HPLC), t = 28 h at 32° C. [5, 11]: 4.78 | Concentration (HPLC), t = 0 [5, 12]: 4.86 | Concentration (HPLC), t = 28 h at 32° C. [5, 12]: 4.74
SMILES: C[C@@](Cc1ccc(O)c(O)c1)(NN)C(=O)O [CD]

SMILES: NCCCC[C@H](NC(=O)[C@@H](N)Cc1ccc(O)c(O)c1)C(=O)O [LD-Lys HCl salt] (H-[Dopa]-Lys-OH)
Appearance (physchem; 0.75% CD solution, pH 6.46, 240 mg/ml salt): Clear | Appearance (physchem; [13]): Clear | solubility thermodynamic (physchem; 25 °C, aqueous buffer, thermodynamic from solid, solvent WFI, pH 6.51, HCl counter-ion, read-out: LD-Lys TFA salt concentration): 350 mg/mL | Appearance (physchem; WFI, pH 6.51, 350 mg/ml salt): Clear | LD-Lys free base Concentration (physchem; solvent 0.75% CD solution, pH 6.46): 200 mg/mL | LD-Lys TFA salt concentration (physchem; solvent 0.75% CD solution, pH 6.46, HCl counter-ion): 240 mg/mL | LD-Lys free base Concentration (physchem; solvent 0.75% CD solution, pH 8.5): 200 mg/mL | LD-Lys TFA salt concentration (physchem; solvent 0.75% CD solution, pH 8.5, HCl counter-ion): 240 mg/mL | LD-Lys free base Concentration (physchem; solvent WFI, pH 6.51): 290 mg/mL | Stability [6, 13]: Precipitated* (precipitated within 12 hours at room temperature) | Stability ([6]; WFI, pH 6.51, 350 mg/ml salt): Stable (physically stable for at least 12 hours)
